Test results taken from PMC10544575, “Inhibitory mechanism of vortioxetine on CYP450 enzymes in human and rat liver microsomes” (Frontiers in Pharmacology, 2023).
Read-outs that look alike come from different tables or passages of the source.

Experiments:
[1] = target: T1, CYP2C8 (Homo sapiens, UniProt P10632); experiment: IC50 of vortioxetine on CYP2C8 (amodiaquine) in HLMs; assay type: in vitro ADME; design: 0.20 mg/mL HLMs; from tissue; host or cells: human liver microsomes
T1 sequence (P10632 1-490): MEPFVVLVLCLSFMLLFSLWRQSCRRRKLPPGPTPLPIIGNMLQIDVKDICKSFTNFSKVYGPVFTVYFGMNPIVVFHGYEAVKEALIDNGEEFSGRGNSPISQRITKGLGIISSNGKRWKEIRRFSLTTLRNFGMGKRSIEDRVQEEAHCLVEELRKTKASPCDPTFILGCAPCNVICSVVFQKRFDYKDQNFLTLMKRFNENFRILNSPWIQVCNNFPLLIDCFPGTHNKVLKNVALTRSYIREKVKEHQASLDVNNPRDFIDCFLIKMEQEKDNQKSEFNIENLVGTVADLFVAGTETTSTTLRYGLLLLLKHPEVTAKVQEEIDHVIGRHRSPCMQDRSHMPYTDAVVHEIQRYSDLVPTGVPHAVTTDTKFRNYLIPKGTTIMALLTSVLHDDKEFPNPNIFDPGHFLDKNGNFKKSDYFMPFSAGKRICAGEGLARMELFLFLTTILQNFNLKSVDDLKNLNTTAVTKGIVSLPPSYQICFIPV
Method: (§1) The components of the incubation system were as follows: 0.20 mg/mL HLMs or 0.20 mg/mL RLMs, 0.1 M Tris-HCl, vortioxetine, and the probe substrates of each enzyme. In the study of Km’s (Michaelis–Menten constant) experiment, midazolam (1, 2, 5, 10, 20, 50 and 100 μM in HLMs and RLMs) corresponded to CYP3A4/3A; bupropion (10, 20, 50, 100, 200, 500, 1,000 and 2000 μM in HLMs; 1, 2, 5, 10, 20, 50, 100 and 200 μM in RLMs) corresponded to CYP2B6/2B; amodiaquine (5, 10, 20, 50, 100 and 200 μM in HLMs; 10, 20, 50, 100, 200, 500 μM in RLMs) corresponded to CYP2C8/CYP2C-1; losartan (1, 2, 5, 10, 20, 50, 100, 200 μM in HLMs; 10, 20, 50, 100, 200, 500 and 1,000 μM in RLMs) corresponded to CYP2C9/CYP2C-2; mephenytoin (20, 50, 100, 200, 500 and 1,000 μM in HLMs; 5, 10, 20, 50, 100, 200, 500 and 1,000 μM in RLMs) corresponded to CYP2C19/CYP2C-3; and dextromethorphan (1, 2, 5, 10, 20, 50 and 100 μM in HLMs and RLMs) corresponded to CYP2D6/CYP2D. […]
(§2) All experiments results were detected by UPLC-MS/MS, which equipped with a Waters Acquity UPLC system (Milford, MA, United States) and a Waters Xevo TQ-S triple quadrupole tandem mass spectrometer with an electrospray ionization source (Milford, MA, United States). […]
(§3) IC50 values and enzyme kinetic parameters were calculated by Graphpad Prism 6.0 (GraphPad software Inc., CA, United States). […] Data for each experiment were expressed as mean ± SD (n = 3).

[2] = tested on: CYP3A; experiment: Reversible inhibition kinetics (Lineweaver-Burk), CYP3A in RLMs; assay type: in vitro ADME, rat
Method: as §1, §2, §3

IC50 ([1]; HLMs 0.20 mg/mL, amodiaquine at Km, 37°C, 30 min, read-out: IC50): 15 µM
IC50 ([1]; inhibitory effect (strength judged by IC50), HLMs): > 10 µM
Inhibition type ([2]; midazolam, Lineweaver-Burk plot): uncompetitive inhibition
Ki at 30 min ([2]; rat, rat liver microsomes, probe midazolam): 4.41 µM
SMILES: Cc1ccc(Sc2ccccc2N2CCNCC2)c(C)c1 [vortioxetine]
